Assay [1] has as its system left ventricular (LV) muscle mass and LV systolic and diastolic function. To be noted: 58 patients with primary glomerulonephritis and moderate chronic renal failure; cited from earlier work.
Assay [2] relates to left ventricular hypertrophy (LVH) in ESRD dialysed patients. Put plainly: Clinical trial of propionyl L-carnitine in ESRD patients on dialysis (multicentre, randomized, double-blind, placebo-controlled; echocardiography). It is filed as in vivo. How it is done:
A clinical trial (multicentre, parallel, randomized, double-blind, dose-ranging placebo-controlled study in 300 patients) useful for evaluating both preventive and/or curative effect of the treatment with propionyl L-carnitine (3 and 6 mg/kg given intravenously three times a week at the end of the hemodyalisis session for 26 weeks) has been done.
Inclusion Criteria • 1) male or female out-patients aged >18 years, suffering from ESRD on bicarbonate dialysis three times a week; • 2) patients who have reached a certain degree of dialytic stability (at least since six months on dialysis), so that the variability due to the progressive patient adaptation of the therapeutic treatment is controlled, presenting no clinical signs of hydric overload at the end of dialysis; • 3) patients showing a degree of cardiac deterioration defined as inter-ventricular septum and left ventricular wall thickness >11 mm; • 4) patients with left ventricular ejection fraction >40%; • 5) patients under stable pharmacological treatment for at least three months; • 6) absence of acute ischaemic events (effort angina, unstable angina, AMI) during the last three months; • 7) presence of an adequate acoustic window and a good echogenicity; • 8) capacity of co-operating with the administered questionnaire. […]

With `C[C@H](CS)C(=O)N1CCC[C@H]1C(=O)O` [captopril], the “LV ejection fraction, early and late transmittal flow velocities and early to late LV inflow velocities ratio” value in assay [1] is listed as “not significantly affected”.
In the case of `CCC(=O)O[C@H](CC(=O)[O-])C[N+](C)(C)C` [propionyl L-carnitine], the “signs of LVH (a)-(c): left-ventricular septum and posterior wall thickness, end-systolic and end-diastolic size and volume, ejection fraction” value in assay [2] (3 and 6 mg/kg intravenously three times a week at end of hemodialysis for 26 weeks, preliminary ANOVA analysis, treated versus control group) was “useful for treating the signs of LVH”. Further, in assay [2] (3 and 6 mg/kg intravenously three times a week for 26 weeks, T26 vs T0 in treated group, control group worsened), the “progression of the signs of LVH (a)-(c) respect to base line” value is recorded as “able to reduce the progression of the signs of LVH”.
In the case of `CCOC(=O)[C@H](CCc1ccccc1)N[C@@H](C)C(=O)N1CCC[C@H]1C(=O)O` [enalapril], in assay [1], the “LV ejection fraction, early and late transmittal flow velocities and early to late LV inflow velocities ratio” value was “not significantly affected”.

(Values after patent publication US20080234373A1, “Compound Useful For the Prevention and Treatment of Left Ventricular Hypertrophy in Dialysed Patients” (SIGMA-TAU INDUSTRIE FARMACEUTICHE RIUNITE S.P.A., priority 2005, published 2008).)
